One test has as its system BT-111 cells. Format: cell-based, human.
In the next test the target is T1, hMAO-A (Homo sapiens, UniProt P21397).
T1 sequence (P21397 1-527): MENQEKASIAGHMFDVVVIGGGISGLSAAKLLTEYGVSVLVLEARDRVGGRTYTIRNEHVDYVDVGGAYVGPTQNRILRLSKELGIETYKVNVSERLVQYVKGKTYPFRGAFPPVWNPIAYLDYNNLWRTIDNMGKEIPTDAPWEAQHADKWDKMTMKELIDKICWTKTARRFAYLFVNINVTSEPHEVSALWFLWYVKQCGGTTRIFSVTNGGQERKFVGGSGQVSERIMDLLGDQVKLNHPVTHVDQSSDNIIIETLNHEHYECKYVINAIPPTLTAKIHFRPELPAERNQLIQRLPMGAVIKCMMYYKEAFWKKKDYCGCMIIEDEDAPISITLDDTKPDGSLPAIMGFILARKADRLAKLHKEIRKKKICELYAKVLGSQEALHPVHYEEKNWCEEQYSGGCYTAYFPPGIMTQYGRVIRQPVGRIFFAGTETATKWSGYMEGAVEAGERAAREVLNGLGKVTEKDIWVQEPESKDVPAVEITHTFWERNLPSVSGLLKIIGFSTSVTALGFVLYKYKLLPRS
The conditions noted are these: Fierro and co-workers; cited from earlier work.

The next test deals with MAO-B. The conditions noted are these: previously-published work; cited from earlier work.
The subject of test [1] is BT-111. Put plainly: Cell death, Hoechst viability stain. It counts as cell-based, human. The conditions noted are these: BT-111, high concentrations, 2 μM selegiline, 24 hrs.
The test system of test [2] is BT-115. Nature of the test: Cell death, Hoechst viability stain. It counts as cell-based, human. The conditions noted are these: BT-115, high concentrations, 2 μM selegiline, 24 hrs.
The test system of test [3] is BT-111. Nature of the test: Total cell protein mass, BCA/SDS method. The conditions noted are these: BT-111, with 2 μM selegiline, 24 hr. Format: cell-based, human.
In test [4] the test system is BT-115. Put plainly: Total cell protein mass, BCA/SDS method. Format: cell-based, human. The conditions noted are these: BT-115, with 2 μM selegiline, 24 hr.

A value given as a limit tells only on which side of the number the result lay.

This is an account of results in patent US10555936B2, “Chemotherapeutic compositions and methods for treating human gliomas” (The Methodist Hospital, priority 2011, dated 2020).

For the compound `C#CCN(C)[C@H](C)Cc1ccccc1` [Selegiline], the “effect on mitochondrial membrane potential” value in the test with BT-111 cells is “no effect”.
Regarding `CSc1ccc(CC(C)N)cc1` (centres unmarked) [MTA], at hMAO-A, the “times better at inhibiting hMAO-A than hMAO-B” value is recorded as more than 1000 times.
For `CN1CC=C(C2CCCCC2)CC1` [4-cyclohexyl-1-methyl-1,2,3,6-tetrahydropyridine], in the test on MAO-B, the MAO-B substrate quality result was “excellent MAO-B substrates”.
With `CCc1c2c(nc3ccc(OCCCN)cc13)-c1cc3c(c(=O)n1C2)COC(=O)[C@]3(O)CC` [APE-SN38, 7-ethyl-10-(3-aminprop)-oxy-camptothecine], the “cell death on co-incubation with selegiline” value in the test with BT-111 [1] and with BT-115 [2] was “could be arrested” throughout. Moreover, the protection by selegiline entry in the test on BT-111 [3] and in the test on BT-115 [4] was “almost complete protection” in each case.
Consider “1-methyl-4-(3-methylfuran-yl)-1,2,3,6-tetrahydropyridine”, for which, in the test with MAO-B, the MAO-B substrate quality entry is on record as “excellent MAO-B substrates”.
